# Data: patent US9943576B2 (priority 2014, dated 2018)
# Tests used:
# Type in all cases: cell-based
# [1] = test system: human uroepithelial cells
# [2] = test system: human uroepithelial cells; remark: listed apart in the source
# [3] = test system: human uroepithelial cells; remark: listed apart in the source
Compound,Typical Results [1],"penetration of fluorescent gelatin, RFU relative to untreated control [2] [%]",increase vs saline in the amount of BoNT/A that permeated the in vitro urothelium [3] [fold]
CCOCCOCCO [Diethylene glycol mono-ethyl ether],No Effect,,
O=C(O)CN(CCN(CC(=O)O)CC(=O)O)CC(=O)O [EDTA],Increase,300,
CCCCCCCC/C=C\CCCCCCCC(=O)OCCOCC(OCCO)C1OCC(OCCO)C1OCCO (stereo not shown) [Tween 80],Increase (Dose response),,
Poly-L-lysine Hydrobromide,Increase (Dose response),,
OCc1ccccc1 [Benzyl Alcohol],Slight Increase (1% at 2,,
Benzalkonium bromide,No Effect,,
Nonoxynol 9,Increase (Dose response),,3
octyl phenol ethoxylate [Triton-X100],Increase (Dose response),,3.6
Protamine sulfate,Inhibited,,
Poly-L-Arginine,Inhibited,,
